In patent US11149033B2, “Heteroaryl compound, enantiomer, diastereomer or pharmaceutically acceptable salt thereof, and antiviral composition containing same as active ingredient” (priority 2016, dated 2021):
Read-outs that look alike come from different tables or passages of the source.

Assays:
[1] = in vitro
[2] = tested on: A/Perth/16/2009 (H3N2); assay: Antiviral activity (drug efficacy evaluation by concentration) against A/Perth/16/2009 (H3N2); assay type: cell-based, A type influenza virus; details: Influenza A virus
[3] = tested on: B/Florida/04/2006; assay: Antiviral activity (drug efficacy evaluation by concentration) against B/Florida/04/2006; assay type: cell-based, B type influenza virus
[4] = tested on: A/California/07/2009 (H1N1); assay: Antiviral activity (drug efficacy evaluation by concentration) against A/California/07/2009 (H1N1); assay type: cell-based, A type influenza virus; details: Influenza A virus
[5] = CC50 B/Florida/04/2006, cytotoxicity in the B/Florida/04/2006 assay
[6] = H3N2, A/Perth/16/2009 (H3N2), read-out: EC50 A/Perth/16/2009 (H3N2)
[7] = H1N1, A/California/07/2009 (H1N1), read-out: EC50 A/California/07/2009 (H1N1)
[8] = CC50, third EC50/CC50 column pair (c7), beside the EC50 of c6

| SMILES | CC50 [1, 5] [µM] | EC50 [2, 6] [µM] | EC50 ([3]; read-out: EC50 B/Florida/04/2006, B/Florida/04/2006) [nM] | melting point [°C] | EC50 [4, 7] [µM] | EC50 ([4]; H1N1, read-out: EC50) [µM] | CC50 ([1]; CC50, beside the EC50 of c2) [µM] | CC50 ([1]; CC50, beside the EC50 of c4) [µM] | CC50 [1, 8] [µM] | EC50 ([2]; H3N2, read-out: EC50) [µM] | EC50 [3] [nM] |
| --- | --- | --- | --- | --- | --- | --- | --- | --- | --- | --- | --- |
| Cc1nn(Cc2nnc(SCc3ccncc3-c3ccccc3)o2)c(C)c1Br [Compound 16, 2-((4-bromo-3,5-dimethyl-1H-pyrazol-1-yl)methyl)-5-(((3-phenylpyridin-4-yl)methyl)thio)-1,3,4-oxadiazole] | > 50 | > 50 | > 50000 |  |  |  |  |  |  |  |  |
| c1ccc(-c2ccccc2CSc2nnc(-c3cnn(-c4ccccc4)c3)o2)cc1 [Compound 36, 2-(([1,1′-biphenyl]-2-ylmethyl)thio)-5-(1-phenyl-1H-pyrazol-4-yl)-1,3,4-oxadiazole] | > 50 | > 50 |  | 114.2 |  |  |  |  |  |  |  |
| Cc1cccc(C)c1CSc1nnc(Cn2nc(C)c(Br)c2C)o1 [Compound 40, 2-((4-bromo-3,5-dimethyl-1H-pyrazol-1-yl)methyl)-5-((2,6-dimethylbenzyl)thio)-1,3,4-oxadiazole] | > 50 |  |  | 106.3 | > 50 |  |  |  |  |  |  |
| c1ccc(-c2nnc(SCc3ccccc3-c3ccccc3)o2)cc1 [Compound 43, 2-(([1,1′-biphenyl]-2-ylmethyl)thio)-5-phenyl-1,3,4-oxadiazole] | > 50 | > 50 |  |  | > 50 |  |  |  |  |  |  |
| O=C(c1cccc(-c2ccccc2)c1)c1nnc(Cc2ccc(Br)cc2)o1 [Compound 69, [1,1′-biphenyl]-3-yl(5-(4-bromobenzyl)-1,3,4-oxadiazol-2-yl)methanone] | > 50 | 49.3 |  | 166.4 | > 50 |  |  |  |  |  |  |
| OC(c1cccc(-c2ccccc2)c1)c1nnc(Cc2ccc(Br)cc2)o1 (stereo not shown) [Compound 70, [1,1′-biphenyl]-3-yl(5-(4-bromobenzyl)-1,3,4-oxadiazol-2-yl)methanol] | > 50 | 37.5 |  | 137.6 |  |  |  |  |  |  |  |
| O=C(Nc1ccc(Br)cc1)c1nnc(SCc2ccccc2-c2ccccc2)o1 [Compound 72, 5-(([1,1′-biphenyl]-2-ylmethyl)thio)-N-(4-bromophenyl)-1,3,4-oxadiazole-2-carboxamide] | 25 | 23.5 |  |  | 0.73 |  |  |  |  |  |  |
| Fc1cc(Nc2nnc(/C=C/c3ccccc3Br)o2)ccc1Br [Compound 88, (E)-N-(4-bromo-3-fluorophenyl)-5-(2-bromostyryl)-1,3,4-oxadiazol-2-amine] |  |  |  | 225.1 |  | > 50 | > 50 | > 50 | > 50 | > 50 |  |
| Cc1ccccc1CCc1nnc(Nc2ccc(Br)cc2)o1 [Compound 89, N-(4-bromophenyl)-5-(2-methylphenethyl)-1,3,4-oxadiazol-2-amine] |  |  |  | 153.5 |  | > 50 | > 50 | > 50 | > 50 | 48.4 |  |
| Cc1cc(Nc2nnc(CCc3ccccc3C)o2)ccc1Br [Compound 90, N-(4-bromo-3-methylphenyl)-5-(2-methylphenethyl)-1,3,4-oxadiazol-2-amine] |  |  |  | 122.7 |  | > 50 | > 50 | > 50 | > 50 | > 50 |  |
| CC(C)c1ccccc1/C=C/c1nnc(Nc2ccc(Br)cc2)o1 [Compound 117, (E)-N-(4-bromophenyl)-5-(2-isopropylstyryl)-1,3,4-oxadiazol-2-amine] |  |  |  | 225.6 |  | 31.4 | > 50 | > 50 |  | 43.5 |  |
| Brc1ccc(Nc2nnc(/C=C/c3ccccc3-c3ccccc3)o2)cc1 [Compound 124, (E)-5-(2-([1,1′-biphenyl]-2-yl)vinyl)-N-(4-bromophenyl)-1,3,4-oxadiazol-2-amine] |  |  |  | 239.3 |  |  | > 50 | > 50 | > 50 | > 50 |  |
| Brc1ccc(Nc2nnc(/C=C/c3ccccc3Oc3ccccc3)o2)cc1 [Compound 125, (E)-N-(4-bromophenyl)-5-(2-phenoxystyryl)-1,3,4-oxadiazol-2-amine] |  |  |  |  |  | 36.7 | > 50 | > 50 | > 50 | > 50 |  |
| Cc1ccccc1CC1(c2nnc(Cc3ccc(Br)cc3)o2)CC1 [Compound 129, 2-(4-bromobenzyl)-5-(1-(2-methylbenzyl)cyclopropyl)-1,3,4-oxadiazole] |  |  |  | 72.2 |  |  | > 50 | > 50 | > 50 | 6.13 |  |
| Cc1cccc(C)c1/C=C/c1nnc(Cc2ccc(Br)cc2)o1 [Compound 134, 2-(4-bromobenzyl)-5-(2,6-dimethylstyryl)-1,3,4-oxadiazole] |  |  |  |  |  | > 50 | > 50 | > 50 | > 50 | > 50 |  |
| CC(=Cc1ccccc1C)c1nnc(Cc2ccc(Br)cc2)o1 [Compound 138, 2-(4-bromobenzyl)-5-(1-(o-tolyl)prop-1-en-2-yl)-1,3,4-oxadiazole] |  |  |  |  |  | 0.161 | > 50 | > 50 | > 50 |  |  |
| Cc1cccc(/C=C/c2nnc(Cc3ccc(Br)cc3)o2)c1C [Compound 150, 2-(4-bromobenzyl)-5-(2,3-dimethylstyryl)-1,3,4-oxadiazole] |  |  |  | 126.9 |  |  | > 50 | > 50 | > 50 | > 50 |  |
| Fc1ccc(/C=C/c2nnc(Cc3ccc(F)c(Cl)c3)o2)c(Cl)c1 [Compound 159, (E)-2-(3-chloro-4-fluorobenzyl)-5-(2-chloro-4-fluorostyryl)-1,3,4-oxadiazole] |  |  |  | 142.2 |  | > 50 | > 50 | > 50 | > 50 | 39.7 |  |
| Fc1ccc(/C=C/c2nnc(Nc3ccc(Br)c(F)c3)o2)c(Cl)c1 [Compound 160, (E)-N-(4-bromo-3-fluorophenyl)-5-(2-chloro-4-fluorostyryl)-1,3,4-oxadiazol-2-amine] |  |  |  | 195.7 |  | > 50 | > 50 | > 50 | > 50 | > 50 |  |
| Cc1cc(Cc2nnc(/C=C/c3ccc(F)cc3Cl)o2)ccc1Br [Compound 176, (E)-2-(4-bromo-3-methylbenzyl)-5-(2-chloro-4-fluorostyryl)-1,3,4-oxadiazole] |  |  |  | 119.9 |  |  | 6.53 | > 50 | > 50 |  |  |
| Fc1ccc(/C=C/c2nnc(Cc3cccc(Cl)c3)o2)c(Cl)c1 [Compound 179, (E)-2-(2-chloro-4-fluorostyryl)-5-(3-chlorobenzyl)-1,3,4-oxadiazole] |  |  |  | 104 |  | 0.632 | > 50 | > 50 | > 50 |  |  |
| Fc1ccc(/C=C/c2nnc(Cc3cccc(Br)c3)o2)c(F)c1 [Compound 189, 2-(3-bromobenzyl)-5-(2,4-difluorostyryl)-1,3,4-oxadiazole] |  |  |  | 87.7 |  |  | > 50 | > 50 | > 50 |  |  |
| Fc1cc(Cl)ccc1/C=C/c1nnc(Cc2cccc(Br)c2)o1 [Compound 190, 2-(3-bromobenzyl)-5-(4-chloro-2-fluorostyryl)-1,3,4-oxadiazole] |  |  |  | 107.2 |  |  |  | 40.1 |  |  |  |
| Cc1ncccc1/C=C/c1nnc(Cc2cccc(Br)c2)o1 [Compound 204, (E)-2-(3-bromobenzyl)-5-(2-(2-methylpyridin-3-yl)vinyl)-1,3,4-oxadiazole] |  |  |  |  |  |  | > 50 | > 50 | > 50 |  | 2500 |
| Fc1ccc(/C=C/c2nnc(Cc3ccc(F)c(Br)c3)o2)c(Cl)c1 [Compound 207, 2-(3-bromo-4-fluorobenzyl)-5-(2-chloro-4-fluorostyryl)-1,3,4-oxadiazole] |  |  |  | 123 |  |  | > 50 | > 50 | > 50 |  |  |
